This is an account of results in patent US9018233B2, “Diaminoaryl derivatives substituted by carbamate and pesticidal composition containing same” (Kyung Nong Corporation, priority 2012, dated 2015).

One experiment deals with Tobacco Cutworm Moth (Spodoptera litura). The experiment can be described thus: Insecticidal activities against tobacco cutworm moth measured by leaf-dip method. The experiment is classed as in vivo. Particulars: 96 h, 100 ppm, after 4 days, 2nd instar larvae, leaf-dip, read-out: percent control value. The procedure: In this test, larvae descended from tobacco cutworm moths (Spodoptera litura), which had been collected in 2009 near Gyeongju area and reared in the laboratory, were used. […] […] The Petri dish was stored under light condition 16:8 hours, 25±1° C. and RH 50-60%, and then the number of larvae survived were counted 24, 48, 72 and 96 hours after the inoculation. As shown in Equations 1 and 2 above, the survival rate was calculated by calibrating the larvae density after treatment with the larvae density before treatment, and the control value is calculated by subtracting the survival rate in the treatment group from the survival rate in the control group and dividing the result by the survival rate in the control group.
As to `COC(=O)Nc1cc(C#N)cc(C)c1NC(=O)c1cc(OCC(F)(F)F)nn1-c1ncccc1Cl` [Example 60, methyl (2-(3-(2,2,2-trifluoroethoxy)-1-(3-chloropyridin-2-yl)-1H-pyrazole-5-carboxamido)-5-cyano-3-methylphenyl)carbamate], the pest or weed control at 100 ppm was no less than 80%.

For `COC(=O)Nc1cc(C#N)cc(C)c1NC(=O)c1cc(OC)nn1-c1ncccc1Cl` [Example 58, methyl (2-(1-(3-chloropyridin-2-yl)-3-methoxy-1H-pyrazole-5-carboxamido)-5-cyano-3-methylphenyl)carbamate], the pest or weed control at 100 ppm is no less than 80%.

In the case of `CCCOC(=O)Nc1cc(Cl)cc(C)c1NC(=O)c1cc(Br)nn1-c1ncccc1Cl` [Example 22, propyl (2-(3-bromo-1-(3-chloropyridin-2-yl)-1H-pyrazole-5-carboxamido)-5-chloro-3-methylphenyl)carbamate], the pest or weed control at 100 ppm was no less than 80%. The same measure, in the same setting: then `COC(=O)Nc1cc(C#N)cc(C)c1NC(=O)c1cc(C(F)(F)F)nn1-c1ncccc1Cl` [Example 61, methyl (2-(1-(3-chloropyridin-2-yl)-3-(trifluoromethyl)-1H-pyrazole-5-carboxamido)-5-cyano-3-methylphenyl)carbamate], with no less than 80%; and `COC(=O)Nc1cc(C#N)cc(C)c1NC(=O)c1cc(C(F)(F)F)nn1-c1ccccc1Cl` [Example 62, methyl (2-(1-(2-chlorophenyl)-3-(trifluoromethyl)-1H-pyrazole-5-carboxamido)-5-cyano-3-methylphenyl)carbamate], with no less than 80%.

In the case of `COC(=O)Nc1cc(C(F)(F)F)cc(Cl)c1NC(=O)c1cc(Br)nn1-c1ncccc1Cl` [Example 48, methyl (2-(3-bromo-1-(3-chloropyridin-2-yl)-1H-pyrazole-5-carboxamido)-3-chloro-5-(trifluoromethyl)phenyl)carbamate], the pest or weed control at 100 ppm was no less than 80%.

As for `COC(=O)Nc1cc(Br)cc(Br)c1NC(=O)c1cc(Br)nn1-c1ncccc1Cl` [Example 40, methyl (3,5-dibromo-2-(3-bromo-1-(3-chloropyridin-2-yl)-1H-pyrazole-5-carboxamido)phenyl)carbamate], the pest or weed control at 100 ppm is no less than 80%. Regarding `CCOC(=O)Nc1cc(Cl)cc(C)c1NC(=O)c1cc(Br)nn1-c1ncccc1Cl` [Example 21, ethyl (2-(3-bromo-1-(3-chloropyridin-2-yl)-1H-pyrazole-5-carboxamido)-5-chloro-3-methylphenyl)carbamate], the pest or weed control at 100 ppm is no less than 80%. On to `COC(=O)Nc1cc(C(F)(F)F)cc(Br)c1NC(=O)c1cc(Br)nn1-c1ncccc1Cl` [Example 51, methyl (3-bromo-2-(3-bromo-1-(3-chloropyridin-2-yl)-1H-pyrazole-5-carboxamido)-5-(trifluoromethyl)phenyl)carbamate], for which the pest or weed control at 100 ppm is no less than 80%. `COC(=O)Nc1cc([N+](=O)[O-])cc(C)c1NC(=O)c1cc(Br)nn1-c1ncccc1Cl` [Example 55, Methyl (2-(3-bromo-1-(3-chloropyridin-2-yl)-1H-pyrazole-5-carboxamido)-3-methyl-5-nitrophenyl)carbamate]: the pest or weed control at 100 ppm was no less than 80%. Consider `CCOC(=O)Nc1cc(C#N)cc(C)c1NC(=O)c1cc(Br)nn1-c1ncccc1Cl` [Example 63, ethyl (2-(3-bromo-1-(3-chloropyridin-2-yl)-1H-pyrazole-5-carboxamido)-5-cyano-3-methylphenyl)carbamate], for which the pest or weed control at 100 ppm was no less than 80%. As for `COC(=O)Nc1cc(C#N)cc(C)c1NC(=O)c1cc(Cl)nn1-c1ncccc1Cl` [Example 56, methyl (2-(3-chloro-1-(3-chloropyridin-2-yl)-1H-pyrazole-5-carboxamido)-5-cyano-3-methylphenyl)carbamate], the pest or weed control at 100 ppm was no less than 80%. Consider `CC(C)COC(=O)Nc1cc(Br)cc(Br)c1NC(=O)c1cc(Br)nn1-c1ncccc1Cl` [Example 41, isobutyl (3,5-dibromo-2-(3-bromo-1-(3-chloropyridin-2-yl)-1H-pyrazole-5-carboxamido)phenyl)carbamate], for which the pest or weed control at 100 ppm is no less than 80%. Same read-out and setting: then `COC(=O)Nc1cc(C#N)cc(C)c1NC(=O)c1cc(Br)nn1-c1ncccc1Cl` [Example 33, methyl (2-(3-bromo-1-(3-chloropyridin-2-yl)-1H-pyrazole-5-carboxamido)-5-cyano-3-methylphenyl)carbamate], with no less than 80%; and `CC(C)COC(=O)Nc1cc(Cl)cc(Cl)c1NC(=O)c1cc(Br)nn1-c1ncccc1Cl` [Example 4, isobutyl (2-(3-bromo-1-(3-chloropyridin-2-yl)-1H-pyrazole-5-carboxamido)-3,5-dichlorophenyl)carbamate], with no less than 80%.

Consider `COC(=O)Nc1cc(C#N)cc(C)c1NC(=O)c1cc(C#N)nn1-c1ncccc1Cl` [Example 57, methyl (2-(1-(3-chloropyridin-2-yl)-3-cyano-1H-pyrazole-5-carboxamido)-5-cyano-3-methylphenyl)carbamate], for which the pest or weed control at 100 ppm was no less than 80%. Still for that read-out and setting: then `Cc1cc(C#N)cc(NC(=O)OCCCl)c1NC(=O)c1cc(Br)nn1-c1ncccc1Cl` [Example 64, 2-chloroethyl (2-(3-bromo-1-(3-chloropyridin-2-yl)-1H-pyrazole-5-carboxamido)-5-cyano-3-methylphenyl)carbamate], with no less than 80%. Still for that read-out and setting: the figure for `COC(=O)Nc1cc(Cl)cc(C)c1NC(=O)c1cc(Br)nn1-c1ncccc1Cl` [Example 11, methyl (2-(3-bromo-1-(3-chloropyridin-2-yl)-1H-pyrazole-5-carboxamido)-5-chloro-3-methylphenyl)carbamate] is no less than 80%.

The same experiment, now with this note: 96 h, read-out: percent control value.
With `COC(=O)Nc1cccc(C)c1NC(=O)c1cc(Br)nn1-c1ncccc1Cl` [Example 54, Methyl (2-(3-bromo-1-(3-chloropyridin-2-yl)-1H-pyrazole-5-carboxamido)-3-methylphenyl)carbamate], the pest or weed control at 100 ppm was no less than 80%.
